Results on one compound are retold here after US20220105206A1, “SENSITIVITY ADVANCES IN ULTRASOUND SWITCHABLE FLUORESCENCE SYSTEMS AND TECHNIQUES” (Board of Regents, The University of Texas System, priority 2020, published 2022).

The conditions of series [1]: cited from earlier work.
The conditions of series [2]: literature value; cited from earlier work.
A short description of series [3]: Excitation and emission spectra of LNPs (Example 5). The class given is physicochemical. Particulars: 530 nm excitation, 25° C. How it is done:
The hydrodynamic sizes of liposomes were measured with the DLS particle analyzer (NanoBrook 90PlusPALS, Brookhaven Instruments, USA). The incident angle of the 659 nm laser was 90 degrees. Samples were diluted with DI water until the count rate reaches 300-700 kcps and the temperature was set at 25° C. The excitation and emission spectra of LNPs were characterized via a spectrometer (Fluoromax-Plus-C, Horiba, Japan) using a 300 μL quartz cuvette (Hellma, Germany) with stir at 25° C. The excitation spectrum was scanned from 650-810 nm with an 830 nm LP emission filter and an emission recording wavelength at 850 nm. The emission spectrum was acquired using a 530 nm excitation light with a 550 nm LP emission filter (Semrock, USA) and recorded from 650-850 nm.

As for `CC1(C)C(/C=C/C=C/C=C/C=C2\N(CCCCS(=O)(=O)O)c3ccc4ccccc4c3C2(C)C)=[N+](CCCCS(=O)(=O)[O-])c2ccc3ccccc3c21` [ICG, indocyanine green], the “degradation of aqueous solutions” value in series [1] (DI water and buffered saline) is “degraded relatively quickly by day 20”. For the same compound, in series [1], the plasma half-life is 2 to 4 min. Also, in series [2], the emission wavelength result is reported as “around 810 nm” and the maximum absorption wavelength entry is “around 785 nm”. The compound also displayed an emission peak in series [3] of 809 nm.
